Measurements taken from patent publication US20260234187A1, “ANTIMICROBIAL PEPTIDES” (MATERIAS S.R.L., priority 2020, published 2026).
Where no end group is shown, it is not given here.

Legend:
[1] = kinetics of structural rearrangements by Circular Dichroism, secondary structure by BESTSEL and Dichroweb; assay type: physicochemical; conditions: sodium acetate pH 4
Procedure: The structural and conformational characterization of the RiLK1 peptide was assessed by investigating its secondary structure by Circular Dichroism (CD) spectroscopy in the absence and in the presence of Sodium Dodecyl Sulfate (SDS) at a concentration of 3 mM to mimic the condition of the bacterial cell membrane.
The CD assays were performed with a Jasco J-810 spectropolarimeter equipped with a thermostated cuvette holder. The samples were loaded into a 0.1 cm long quartz cuvette (Hellma Analytics) and the spectrum was analysed in the range from 190 nm to 250 nm at room temperature for each sample.
The CD spectra were acquired at a scan rate of 20 nm/min, and the recorded results represent an average of 5 scans.
The mean residue ellipticity ([θ], degrees cm^2 dmol^−1) was calculated using the following equation: […]
The secondary structure was calculated through the DICHROWEB site (Whitmore L and Wallace B A, 2004, Nucleic Acids Research 32:668-673, Whitmore L and Wallace B A, 2008, Biopolymers 89:392-400, Lobley et al, 2002, Bioinformatics 18:211-212), using three different algorithms (SELCON3, CONTIN-LL and CDSSTR) (Sreerema N and Woody R W, 1993, Analytical Biochemistry 287:252-260) and selecting the SMP180 protein as the comparison data set, which includes a high number of spectra of soluble and membrane proteins (Abdul-Gader A et al, 2011, Bioinformatics 27:1630-1636).
The secondary structure was also calculated through the BETSEL site (Micsonai A. et al, 2018, Nucleic Acids Res. 46: W315-W322; Micsonai A. et al, 2015, Proc Natl Acad Sci USA; 112: E3095-E3103).
The kinetics of the structural rearrangements of the RiLK1 peptide were assessed over 24 hours by Circular Dichroism (CD) spectroscopy and fluorescence spectroscopy.
0.1 g/L of RiLK1 peptide was dissolved in 10 mM sodium acetate buffer at pH 4, in the absence or presence of 3 mM SDS.

[2] = tested on: Listeria monocytogenes LM2; assay type: cell-based; conditions: LM2, 6 h
Procedure: The bactericidal activity of the RiLK1 peptide was assessed against both Gram positive (Listeria monocytogenes LM2 and Staphilococcus aureus) and Gram negative (Salmonella typhimurium and Escherichia coli) pathogenic bacteria. The assessment of the concentration of the two peptides capable of inhibiting 50% of bacterial growth (IC50) was performed by the broth microdilution assay as described in Wang H X and Ng TB (2003, Peptides 24:969-972). The standard deviations and the IC50s for triplicate incubations of each plate were determined using GraphPad Prism version 6.00 (Graph-Pad Software, La Jolla California USA). All experimental conditions investigated used the plate count method to estimate the bactericidal activity of the peptides. Specifically, the numbers of colonies grown on agar plates seeded with the bacterial suspensions in the absence or presence of the individual peptide dilutions were counted and compared. The standard deviations of the triplicate incubations of each plate were determined using statistical software. A control stock suspension was prepared in which 10^3 CFUs of L. monocytogenes were inoculated in 10 ml of Half Fraser Broth and serial dilutions (100 to 0.01 μM) of the suspension were performed. […]

S. typhimurium = assay type: cell-based, Salmonella typhimurium; conditions: S. typhimurium
Procedure: The evaluation of the Minimum Bactericidal Concentration (MBC), i.e., the lowest concentration of antimicrobial agent capable of 99.9% inhibition of bacterial growth on plates, was carried out as described in Bílikova et al, (2015, Peptides 68:190-196). […] It should be noted that the peptide object of the present invention is more powerful and efficient than the peptide IDR-1018-K6 (described in patent application WO2019012158) against the pathogenic bacteria L. monocytogenes and S. typhimurium, with bactericidal concentration values 4-fold and 7-fold lower, respectively, compared to those shown by IDR-1018-K6.

In the case of RLKWVRIWRR-NH2 [RiLK1, RLKWVRIWRR], the “Random (Bestsel)” value ([1]; t = 0 w/ 3 mM SDS) is reported as 41.3%, the “Random (DichroWeb CONTIN-LL)” value ([1]; t = 0 w/ 3 mM SDS) is reported as 40% and the “α-helix (Bestsel)” value ([1]; t = 0 w/ 3 mM SDS) is reported as 7.4%. For the same substance, the “α-helix (DichroWeb CONTIN-LL)” value ([1]; t = 0 w/ 3 mM SDS) was 22%, the “β-sheet (Bestsel)” value ([1]; t = 0 w/ 3 mM SDS) was 51.4% and the “β-sheet (DichroWeb CONTIN-LL)” value ([1]; t = 0 w/ 3 mM SDS) was 38%. The “Random (Bestsel)” value ([1]; t = 5 min w/ 3 mM SDS) was 42.2%, the “Random (DichroWeb CONTIN-LL)” value ([1]; t = 5 min w/ 3 mM SDS) was 36% and the “α-helix (Bestsel)” value ([1]; t = 5 min w/ 3 mM SDS) was 4.4%. For the same substance, the “α-helix (DichroWeb CONTIN-LL)” value ([1]; t = 5 min w/ 3 mM SDS) was 22%, the “β-sheet (Bestsel)” value ([1]; t = 5 min w/ 3 mM SDS) was 53.4% and the “β-sheet (DichroWeb CONTIN-LL)” value ([1]; t = 5 min w/ 3 mM SDS) was 42%. The “Random (Bestsel)” value ([1]; t = 30 min w/ 3 mM SDS) was 40.3%, the “Random (DichroWeb CONTIN-LL)” value ([1]; t = 30 min w/ 3 mM SDS) was 37% and the “α-helix (Bestsel)” value ([1]; t = 30 min w/ 3 mM SDS) was 11%. For the same substance, the “α-helix (DichroWeb CONTIN-LL)” value ([1]; t = 30 min w/ 3 mM SDS) was 25%, the “β-sheet (Bestsel)” value ([1]; t = 30 min w/ 3 mM SDS) was 48.7% and the “β-sheet (DichroWeb CONTIN-LL)” value ([1]; t = 30 min w/ 3 mM SDS) was 38%. For the same substance, the “Random (DichroWeb CONTIN-LL)” value ([1]; t = 1 h (60 min) w/ 3 mM SDS) was 39%, the “α-helix (DichroWeb CONTIN-LL)” value ([1]; t = 1 h (60 min) w/ 3 mM SDS) was 23% and the “β-sheet (DichroWeb CONTIN-LL)” value ([1]; t = 1 h (60 min) w/ 3 mM SDS) was 38%. For the same substance, the “Random (Bestsel)” value ([1]; t = 1 h w/ 3 mM SDS) was 39.1%, the “α-helix (Bestsel)” value ([1]; t = 1 h w/ 3 mM SDS) was 9.8% and the “β-sheet (Bestsel)” value ([1]; t = 1 h w/ 3 mM SDS) was 51.1%. The “Random (DichroWeb CONTIN-LL)” value ([1]; t = 5 h (300 min) w/ 3 mM SDS) was 38%, the “α-helix (DichroWeb CONTIN-LL)” value ([1]; t = 5 h (300 min) w/ 3 mM SDS) was 19% and the “β-sheet (DichroWeb CONTIN-LL)” value ([1]; t = 5 h (300 min) w/ 3 mM SDS) was 43%. The “Random (Bestsel)” value ([1]; t = 5 h w/ 3 mM SDS) was 39.3%, the “α-helix (Bestsel)” value ([1]; t = 5 h w/ 3 mM SDS) was 6.7% and the “β-sheet (Bestsel)” value ([1]; t = 5 h w/ 3 mM SDS) was 54%. For the same substance, the “Random (DichroWeb CONTIN-LL)” value ([1]; t = 6 h (360 min) w/ 3 mM SDS) was 37%, the “α-helix (DichroWeb CONTIN-LL)” value ([1]; t = 6 h (360 min) w/ 3 mM SDS) was 19% and the “β-sheet (DichroWeb CONTIN-LL)” value ([1]; t = 6 h (360 min) w/ 3 mM SDS) was 44%. For the same substance, the “Random (Bestsel)” value ([1]; t = 6 h w/ 3 mM SDS) was 40.1%, the “α-helix (Bestsel)” value ([1]; t = 6 h w/ 3 mM SDS) was 8% and the “β-sheet (Bestsel)” value ([1]; t = 6 h w/ 3 mM SDS) was 52%. The “Random (Bestsel)” value ([1]; t = 24 h w/ 3 mM SDS) was 38%, the “Random (DichroWeb CONTIN-LL)” value ([1]; t = 24 h w/ 3 mM SDS) was 24% and the “α-helix (Bestsel)” value ([1]; t = 24 h w/ 3 mM SDS) was 8.4%. The “α-helix (DichroWeb CONTIN-LL)” value ([1]; t = 24 h w/ 3 mM SDS) was 29%, the “β-sheet (Bestsel)” value ([1]; t = 24 h w/ 3 mM SDS) was 53.6% and the “β-sheet (DichroWeb CONTIN-LL)” value ([1]; t = 24 h w/ 3 mM SDS) was 47%. The “Random (Bestsel)” value ([1]; w/o 3 mM SDS) was 51.5%, the “Random (DichroWeb CONTIN-LL)” value ([1]; w/o 3 mM SDS) was 61% and the “α-helix (Bestsel)” value ([1]; w/o 3 mM SDS) was 1.2%. The “α-helix (DichroWeb CONTIN-LL)” value ([1]; w/o 3 mM SDS) was 4%, the “β-sheet (Bestsel)” value ([1]; w/o 3 mM SDS) was 47.3% and the “β-sheet (DichroWeb CONTIN-LL)” value ([1]; w/o 3 mM SDS) was 35%. For the same substance, the IC50 [2] was 460 nM and the “bactericidal concentration lower compared to IDR-1018-K6” value (S. typhimurium) was 7 fold.
